According to patent US6107549A, “Genetically engineered plant resistance to thiazopyr and other pyridine herbicides” (Monsanto Company, priority 1999, dated 2000):

Key:
pyridine-esterase = type: biochemical, rabbit
Protocol: Esterase activity assays. Esterase activity was measured in vitro by conversion of either [^14 C]thiazopyr or [^14 C]MON 14300 to their corresponding monoacid. Pyridine-esterase activity was assayed during protein purification and from tissue extracts of transgenic plants. The homogenizing buffer for plant tissues consisted of 100 mM Tris pH 8.0, 1 mM EDTA, 1 mM DTT, and 10% glycerol in water. Plant tissues (1 g/ml buffer) including leaves, seeds, flowers, seedlings, etc. were homogenized in conical centrifuge tubes using a spinning pestle at 4° C. Following centrifugation (12,000× g), the supernatant (250 μl) was assayed immediately for esterase activity by incubation with [^14 C]thiazopyr or [^14 C]MON 14300 (4 μg) in 0.1 M Tris pH 8.0 buffer (50 μl) at 37° C. The reaction was sampled (100 μL) at various times (0.5 to 100 hr) to generate a kinetic profile of monoacid formation. The reaction was stopped by addition of 1% trifluoroacetic acid in acetonitrile (v/v, 150 μl). Following centrifugation (12,000× g for 3 min), the supernatant was analyzed by HPLC/RAD (radioactivity detection) to resolve the monoacid from the parent herbicide and other metabolites. Control reactions in the absence of the esterase recovered un-reacted thiazopyr or MON 14300 for the duration of experiments. Esterase activity was also assayed during protein purification following a similar procedure except a single time-point (1-2 hrs) of incubation was selected within the linear range of reaction. In vitro assays also employed three commonly used calorimetric (p-nitrophenyl butyrate) or fluorescent (4-methyl umbelliferyl butyrate and 5-bromo-4-chloro-3-indolylacetate) substrates. These substrates are useful in rapidly and qualitatively detecting general esterase activity.
Tissue extracts from 3 tobacco R1 seedlings were employed for further studies. Two of the lines (#37437 and #37432) expressed high levels of esterase (~0.5%) and one line (#37436) which expressed no pyridine-esterase was used as negative control. Tissue extracts were incubated with [^14 C]MON 14300 and formation of the monoacid monitored with time. […] In comparison, less that 2% monoacid was detected in line (#37436). […] First, pyridine-esterase was capable of driving the hydrolysis reaction to completion with no apparent product inhibition, and second, there was no endogenous esterase activity in tobacco which catalyzed MON 14300 hydrolysis.

tomato seedlings = conditions: in vivo
Protocol: Esterase activity was also monitored in plants. [^14 C]Thiazopyr or [^14 C]MON 14300 (1-4 μg in acetonitrile) was applied directly to shoots and cotyledons of young seedlings. After 2 days in a growth chamber, tobacco or tomato seedlings were washed with methanol and water, then homogenized (TISSUMIZER™, Tekmar-Dohrmann, Cincinnatti, Ohio) in 5% (v/v) trifluoroacetic acid in acetonitrile (fresh w/v ratio of 2/1). Homogenates were clarified by centrifugation (12,000× g) and supernatants analyzed by HPLC/RAD for the formation of the monoacid metabolite.
MON 14300 was applied to the shoot of 2-day old seedlings. Two days after treatment, seedlings were washed with methanol and tissue extracts analyzed by HPLC. The HPLC chromatograms show signals from both the UV254 nm (upper trace, FIG. 5) and radioactivity (lower trace, FIG. 5) detectors. For the purpose of metabolite identification, plant extracts were co-injected with a mixture of authentic standards visible under UV detection. […] In both transgenic lines, small levels of more polar products, presumably from further degradation of the monoacid as reported by McClanahan et al. (1995), were detected near the solvent front.

tobacco seedlings = assay: Root elongation assay for thiazopyr resistance; type: in vivo
Protocol: Root elongation assay for thiazopyr resistance. Transgenic tobacco R1 seeds (line #37432) were sterilized with a 0.25% sodium hypochlorite solution and repeatedly washed with water. Just prior to solidification of agar (~45° C.), stock solutions of thiazopyr in DMSO (1% final concentration) was added; the final concentrations of thiazopyr were 0, 0.05, 0.1, and 0.5 μM. The liquid agar was vortexed and dispensed (3 ml) into glass test tubes. Seeds (~12 per test tube) were placed on the surface of solidified agar and stored in a growth chamber at 25° C. with a 12 hr day and night cycle. Root development and length were monitored visually with time. Control experiments employed untransformed tobacco seeds from the Samson variety.

tomato = assay: Growth chamber assay, pre-emergence application; type: in vivo; conditions: PE
Protocol: Growth chamber and greenhouse assay for resistance. Pyridine herbicide resistance in transgenic tomato expressing RLE3 was examined in soil with pre-emergence (PE) applications of thiazopyr. Tomato seeds (R1 of #8255 and #8256, and control UC82B) were planted in 100 cm^2 pots (12 seeds per pot) in artificial METROMIX™ soil at a depth of 0.5 cm. Pots were watered and oversprayed with a 50% acetone/water solution (2 ml) containing thiazopyr at use rates of 0, 34, 67, 140, and 280 g/ha (grams per hectare). Pots were placed in a growth chamber (12 hr photoperiod; 60% humidity, 25° C. night/29° C. day; 600 μE light) with daily watering by subirrigation.

Row | SMILES | hydrolysis to monoacid metabolite (pyridine-esterase; non-expressing line #37436, FIG. 3) | monoacid detected (pyridine-esterase; tobacco, seedling tissue extract) [%] | metabolism in plants (tomato seedlings) | monoacid in residue (tomato seedlings; tomato, 48 h) [%] | parent as primary residue (tomato seedlings; tomato, 48 h) [%] | inhibition at 0.1 µM (tobacco seedlings; Nicotiana tabacum, control (Samson) seedlings, 0.1 μM thiazopyr) [%] | root length (tobacco seedlings; transgenic line #37432, 0.1 μM thiazopyr) | root inhibition (tobacco seedlings; transgenic line #37432, 0.5 μM thiazopyr) | difference in vegetative growth between UC82B and #8256 (tomato; 34 g/ha) | stunting (tomato; UC82B control, 67 g/ha) | growth and survival (tomato; UC82B control, 140 g/ha) | stunting (tomato; transgenic #8256, 67 g/ha) | growth and survival (tomato; transgenic #8256, 140 g/ha) | resistant seedlings out of 12 to 16 seeds (tomato; transgenic R1, 140 and 280 g/ha) | effect on flower development, fruit set, and seed production (tomato; transgenic plants, 140 and 280 g/ha)
1 | COC(=O)c1c(C(F)F)nc(C(F)(F)F)c(C(=O)n2cccn2)c1CC(C)C [MON 14300] | no hydrolysis | < 2 | little to no metabolism in plants | 2.5 | 90.8 |  |  |  |  |  |  |  |  |  | 
2 | COC(=O)c1c(C(F)F)nc(C(F)(F)F)c(C2=NCCS2)c1CC(C)C [thiazopyr] |  |  |  |  |  | ~50 | normal root length | Root inhibition was observed | no detectable difference in vegetative growth | about 20% | never grew beyond the cotyledon stage and eventually all died | none | numerous healthy seedlings that were stunted but otherwise normal | approximately 4 | no effect
